A value given as a limit tells only on which side of the number the result lay.

Data set [1] relates to bronchial mucus. The data set is described as follows: test of activity in the rabbit: production/secretion of bronchial mucus (tracheal cannula, technique of Scuri et al.). The class given is in vivo. Conditions: for variation % of secretion of mucus with respect to controls: intravenous, 10 mg/kg, 4 hours following vs 4 hours preceding treatment, versus physiological solution controls. How it is done:
Rabbits were used weighing about 3 kg with a cannula implanted in the trachea according to the technique of Scuri et al., Boll. Chim. Farm., 119,(3), 1980. The quantity of mucus produced and excreted was recorded during the 4 hours preceding and the 4 hours following the treatment.

The nature of data set [2]: acute toxicity in the mouse. The settings on record: in vivo.
Data set [3] is described as follows: acute toxicity in the rat. The settings on record: in vivo.
Data set [4] is described as follows: toxicity, overall statement. Conditions: in words. The format is in vivo.
Data set [5] deals with damage provoked by the action of sulfur dioxide on the bronchi. Kind of data set: test of mucolytic activity based on the inhalation of SO2 in the rat. The class given is in vivo. The text has this:
In the test of mucolytic activity based on the inhalation of SO2 in the rat, the compounds of the present invention have shown a good mucolytic activity.

The mark [6] stands for this setting: intravenous, read-out: LD50 i.v.

One may read the LD50 as the dose at which mortality reaches 50%. In the case of `O=C(O)CSCC(=O)NC1CCSC1=O` (stereo not shown) [PV 144, [(2-oxo-3-tetrahydrothienylcarbamoyl)-methylthio]acetic acid], the “activity compared with reference product carbocysteine (mucus secretion)” value in data set [1] (i.v., same dose by weight (10 mg/kg)) was “at least as active as the reference product”. The “variation % of secretion of mucus with respect to controls” value in data set [1] was found to be 52.1%. Besides, the LD50 was > 3500 mg/kg in data set [2] (setting [6]); > 10000 mg/kg in data set [2] (oral, read-out: LD50 oral); > 3500 mg/kg in data set [3] (setting [6]); > 10000 mg/kg in data set [3] (oral, read-out: LD50 oral). For the same compound, in data set [4], the toxicity entry is recorded as “virtually without toxicity”. In addition, the “regression of bronchial damage compared with carbocysteine” value in data set [5] (PV 144 oral 500 mg/kg vs carbocysteine 500 mg/kg (3.35 mmol/kg)) was “qualitatively and quantitatively equal”. Moreover, the “regression of the damage provoked by sulfur dioxide on the bronchi” value in data set [5] (oral, 500 mg/kg (2 mmol/kg)) is given as “significant regression of the damage”.
For `N[C@@H](CSCC(=O)O)C(=O)O` [carbocysteine, S-carboxymethylcysteine, reference compound], the “variation % of secretion of mucus with respect to controls” value in data set [1] amounted to 51.8%.
